Legend:
[1] = target: T1, human adenosine A2a receptor (Homo sapiens, UniProt P29274); assay: Adenosine A2a Receptor Functional Assay (A2AGAL2); assay type: cell-based; details: CHO-K1 cells, cAMP inducible beta-galactosidase reporter, 15 nM NECA agonist challenge
T1 construct: expressed in transfected cells; host or cells: CHO-K1
Procedure: Adenosine A2a Receptor Functional Assay (A2AGAL2)
To initiate the functional assay, cryopreserved CHO-K1 cells overexpressing the human adenosine A2a receptor and containing a cAMP inducible beta-galactosidase reporter gene were thawed, centrifuged, DMSO containing media removed, and then seeded with fresh culture media into clear 384-well tissue culture treated plates (BD #353961) at a concentration of 10K cells/well. Prior to assay, these plates were cultured for two days at 37° C., 5% CO2, 90% Rh. On the day of the functional assay, culture media was removed and replaced with 45 uL assay medium (Hams/F-12 Modified (Mediatech # 10-080CV) supplemented w/0.1% BSA). Test compounds were diluted and 11 point curves created at a 1000× concentration in 100% DMSO. Immediately after addition of assay media to the cell plates, 50 nL of the appropriate test compound antagonist or agonist control curves were added to cell plates using a Cartesian Hummingbird. Compound curves were allowed to incubate at room temperature on cell plates for approximately 15 minutes before addition of a 15 nM NECA (Sigma E2387) agonist challenge (5 uL volume). A control curve of NECA, a DMSO/Media control, and a single dose of Forskolin (Sigma F3917) were also included on each plate. After additions, cell plates were allowed to incubate at 37° C., 5% CO2, 90% Rh for 5.5-6 hours. After incubation, media was removed, and cell plates were washed 1×50 uL with DPBS w/o Ca & Mg (Mediatech 21-031-CV). Into dry wells, 20 uL of 1× Reporter Lysis Buffer (Promega E3971 (diluted in dH2O from 5× stock)) was added to each well and plates frozen at −20° C. overnight. For β-galactosidase enzyme calorimetric assay, plates were thawed out at room temperature and 20 μL 2× assay buffer (Promega) was added to each well. Color was allowed to develop at 37° C., 5% CO2, 90% Rh for 1-1.5 h or until reasonable signal appeared. The calorimetric reaction was stopped with the addition of 60 μL/well 1M sodium carbonate. Plates were counted at 405 nm on a SpectraMax Microplate Reader (Molecular Devices). Data was analyzed in Microsoft Excel and IC/EC50 curves were fit using a standardized macro.

[2] = target: T2, human adenosine A1 receptor (Homo sapiens, UniProt P30542); assay: Adenosine A1 Receptor Functional Assay (A1GAL2); assay type: cell-based; details: CHO-K1 cells, cAMP inducible beta-galactosidase reporter, 4 nM r-PIA/1 uM Forskolin challenge
T2 construct: expressed in transfected cells; host or cells: CHO-K1
T2 sequence (P30542 1-326): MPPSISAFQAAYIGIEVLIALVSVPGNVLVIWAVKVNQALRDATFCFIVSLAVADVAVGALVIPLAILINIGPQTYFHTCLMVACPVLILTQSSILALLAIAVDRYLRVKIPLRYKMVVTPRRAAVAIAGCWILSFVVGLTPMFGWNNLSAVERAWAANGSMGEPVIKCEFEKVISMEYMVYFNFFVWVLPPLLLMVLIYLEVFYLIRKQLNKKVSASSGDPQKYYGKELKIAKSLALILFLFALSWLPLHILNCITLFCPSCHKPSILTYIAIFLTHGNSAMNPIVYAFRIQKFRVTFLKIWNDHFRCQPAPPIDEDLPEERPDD
Procedure: Adenosine A1 Receptor Functional Assay (A1GAL2)
To initiate the functional assay, cryopreserved CHO-K1 cells overexpressing the human adenosine A1 receptor and containing a cAMP inducible beta-galactosidase reporter gene were thawed, centrifuged, DMSO containing media removed, and then seeded with fresh culture media into clear 384-well tissue culture treated plates (BD #353961) at a concentration of 10K cells/well. Prior to assay, these plates were cultured for two days at 37° C., 5% CO2, 90% Rh. On the day of the functional assay, culture media was removed and replaced with 45 uL assay medium (Hams/F-12 Modified (Mediatech # 10-080CV) supplemented w/0.1% BSA). Test compounds were diluted and 11 point curves created at a 1000× concentration in 100% DMSO. Immediately after addition of assay media to the cell plates, […] of the appropriate test compound antagonist or agonist control curves were added to cell plates using a Cartesian Hummingbird. Compound curves were allowed to incubate at room temperature on cell plates for approximately 15 minutes before addition of a 4 nM r-PIA (Sigma P4532)/1 uM Forskolin (Sigma F3917) agonist challenge (5 uL volume). A control curve of r-PIA in 1 uM Forskolin, a DMSO/Media control, and a single dose of Forskolin were also included on each plate. After additions, cell plates were allowed to incubate at 37° C., 5% CO2, 90% Rh for 5.5-6 hours. After incubation, media was removed, and cell plates were washed 1×50 uL with DPBS w/o Ca & Mg (Mediatech 21-031-CV).
Into dry wells, 20 uL of 1× Reporter Lysis Buffer (Promega E3971 (diluted in dH2O from 5× stock)) was added to each well and plates frozen at −20° C. overnight. For β-galactosidase enzyme calorimetric assay, plates were thawed out at room temperature and 20 μL 2× assay buffer (Promega) was added to each well. Color was allowed to develop at 37° C., 5% CO2, 90% Rh for 1-1.5 h or until reasonable signal appeared. The calorimetric reaction was stopped with the addition of 60 μL/well 1M sodium carbonate. Plates were counted at 405 nm on a SpectraMax Microplate Reader (Molecular Devices). Data was analyzed in Microsoft Excel and IC/EC50 curves were fit using a standardized macro.

T1 sequence (P29274 whole entry): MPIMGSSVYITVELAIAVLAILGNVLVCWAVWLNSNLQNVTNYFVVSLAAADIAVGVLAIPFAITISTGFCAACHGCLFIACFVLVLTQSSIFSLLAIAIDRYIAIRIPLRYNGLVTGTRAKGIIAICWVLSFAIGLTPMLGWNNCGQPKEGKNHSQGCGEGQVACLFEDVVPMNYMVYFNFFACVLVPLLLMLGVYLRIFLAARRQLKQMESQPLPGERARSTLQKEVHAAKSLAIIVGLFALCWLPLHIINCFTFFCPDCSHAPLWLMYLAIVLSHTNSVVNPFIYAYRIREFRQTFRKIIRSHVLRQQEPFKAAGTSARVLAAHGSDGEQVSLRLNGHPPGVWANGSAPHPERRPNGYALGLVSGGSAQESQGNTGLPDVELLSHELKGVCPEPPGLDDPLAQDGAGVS

Molecule C[C@@H]1CCC[C@H](C)N1Cc1cc2c(N)nc(-c3cccc(C#N)c3)nc2s1 [Example 23, 3-[4-Amino-6-(2,6-dimethyl-piperidin-1-ylmethyl)-thieno[2,3-d]pyrimidin-2-yl]-benzonitrile] has a Ki [1] of 64.5 nM and a Ki [2] of 464 nM.
Nc1nc(-c2nccs2)nc2sc(CN3CCOCC3)cc12 [Example 25, 6-Morpholin-4-ylmethyl-2-thiazol-2-yl-thieno[2,3-d]pyrimidin-4-ylamine] was tested, and the Ki [1] was 245 nM and the Ki [2] was 2730 nM.
In the case of Nc1nc(C2CC2)nc2sc(CN3CCCC3)cc12 [Example 43, 2-Cyclopropyl-6-pyrrolidin-1-ylmethyl-thieno[2,3-d]pyrimidin-4-ylamine], the Ki [1] is reported as 404 nM and the Ki [2] is reported as greater than 10000 nM.
Nc1nc(-c2cc(F)cc(F)c2)nc2sc(CN3CCOCC3)cc12 [Example 47, 2-(3,5-Difluoro-phenyl)-6-morpholin-4-ylmethyl-thieno[2,3-d]pyrimidin-4-ylamine] gave a Ki [1] of 349 nM and a Ki [2] of 2300 nM.
Work on Nc1nc(-c2cccc(Cl)c2)nc2sc(CN3CCC(F)CC3)cc12 [Example 48, 2-(3-Chloro-phenyl)-6-(4-fluoro-piperidin-1-ylmethyl)-thieno[2,3-d]pyrimidin-4-ylamine] yielded a Ki [1] of 733 nM and a Ki [2] of 855 nM.
In the case of Nc1nc(-c2cccc(Cl)c2)nc2sc(CN3CCOCC3)cc12 [Example 49, 2-(3-Chloro-phenyl)-6-morpholin-4-ylmethyl-thieno[2,3-d]pyrimidin-4-ylamine], the Ki [1] is reported as 117 nM and the Ki [2] is reported as 785 nM.
In the case of Nc1nc(-c2ccc(F)c(F)c2)nc2sc(CN3CCOCC3)cc12 [Example 50, 2-(3,4-Difluoro-phenyl)-6-morpholin-4-ylmethyl-thieno[2,3-d]pyrimidin-4-ylamine], the Ki [1] is reported as 361 nM and the Ki [2] is reported as 2890 nM.
In the case of Nc1nc(-c2cc(F)cc(F)c2)nc2sc(CN3CCC(F)CC3)cc12 [Example 55, 2-(3,5-Difluoro-phenyl)-6-(4-fluoro-piperidin-1-ylmethyl)-thieno[2,3-d]pyrimidin-4-ylamine], the Ki [1] is reported as 1060 nM and the Ki [2] is reported as 3410 nM.
Molecule Nc1nc(-c2cccc(F)c2)nc2sc(CN3CCSCC3)cc12 [Example 58, 2-(3-Fluoro-phenyl)-6-thiomorpholin-4-ylmethyl-thieno[2,3-d]pyrimidin-4-ylamine] has a Ki [1] of 73.6 nM and a Ki [2] of 331 nM.
With Nc1nc(-c2cc3ccccc3o2)nc2sc(CN3CCC(F)CC3)cc12 [Example 59, 2-Benzofuran-2-yl-6-(4-fluoropiperidin-1-ylmethyl)thieno[2,3-d]pyrimidin-4-ylamine] the Ki [1] was 348 nM and the Ki [2] was 634 nM.
Nc1nc(-c2cccc(F)c2)nc2sc(CN3CCC(F)CC3)cc12 [Example 60, 2-(3-Fluoro-phenyl)-6-(4-fluoro-piperidin-1-ylmethyl)-thieno[2,3-d]pyrimidin-4-ylamine] gave a Ki [1] of 300 nM and a Ki [2] of 1250 nM.
For Nc1nc(-c2cccc(F)c2)nc2sc(CN3CCOCC3)cc12 [Example 61, 2-(3-Fluoro-phenyl)-6-morpholin-4-ylmethyl-thieno[2,3-d]pyrimidin-4-ylamine], the Ki [1] was 123 nM and the Ki [2] was 616 nM.
For N#Cc1ccc(-c2nc(N)c3cc(CN4CCC(F)CC4)sc3n2)cc1 [Example 66, 4-[4-Amino-6-(4-fluoro-piperidin-1-ylmethyl)-thieno[2,3-d]pyrimidin-2-yl]-benzonitrile], the Ki [1] was 1390 nM and the Ki [2] was 8430 nM.
For N#Cc1ccc(-c2nc(N)c3cc(CN4CCCCCC4)sc3n2)cc1 [Example 67, 4-(4-Amino-6-azepan-1-ylmethyl-thieno[2,3-d]pyrimidin-2-yl)-benzonitrile], the Ki [1] was 384 nM and the Ki [2] was 8550 nM.
COc1cccc(-c2nc(N)c3cc(CN4CCC(F)CC4)sc3n2)c1 [Example 71, 6-(4-Fluoro-piperidin-1-ylmethyl)-2-(3-methoxy-phenyl)-thieno[2,3-d]pyrimidin-4-ylamine] gave a Ki [1] of 303 nM and a Ki [2] of 3220 nM.
N#Cc1ccc(-c2nc(N)c3cc(CN4CCC(F)CC4)sc3n2)s1 [Example 72, 5-[4-Amino-6-(4-fluoro-piperidin-1-ylmethyl)-thieno[2,3-d]pyrimidin-2-yl]-thiophene-2-carbonitrile] gave a Ki [1] of 91.3 nM and a Ki [2] of 1910 nM.
In the case of Nc1nc(-c2ncco2)nc2sc(CN3CCOCC3)cc12 [Example 75, 6-Morpholin-4-ylmethyl-2-oxazol-2-yl-thieno[2,3-d]pyrimidin-4-ylamine], the Ki [1] is reported as 356 nM and the Ki [2] is reported as 3250 nM.
Nc1nc(-c2ccc3c(c2)OCO3)nc2sc(CN3CCC(F)CC3)cc12 [Example 76, 2-Benzo[1,3]dioxol-5-yl-6-(4-fluoro-piperidin-1-ylmethyl)-thieno[2,3-d]pyrimidin-4-ylamine] was tested, and the Ki [1] was 209 nM and the Ki [2] was 740 nM.
Nc1nc(-c2ccc[nH]2)nc2sc(CN3CCC(F)CC3)cc12 [Example 81, 6-(4-Fluoro-piperidin-1-ylmethyl)-2-(1H-pyrrol-2-yl)-thieno[2,3-d]pyrimidin-4-ylamine] gave a Ki [1] of 795 nM and a Ki [2] of 3890 nM.
For COc1cccc(-c2nc(N)c3cc(CN4CCOCC4)sc3n2)c1 [Example 84, 2-(3-Methoxy-phenyl)-6-morpholin-4-ylmethyl-thieno[2,3-d]pyrimidin-4-ylamine], the Ki [1] was 373 nM and the Ki [2] was 2990 nM.
N#Cc1cncc(-c2nc(N)c3cc(CN4CCC(F)CC4)sc3n2)c1 [Example 87, 5-[4-Amino-6-(4-fluoro-piperidin-1-ylmethyl)-thieno[2,3-d]pyrimidin-2-yl]-nicotinonitrile] gave a Ki [1] of 6620 nM and a Ki [2] greater than 10000 nM.
In the case of Nc1nc(-c2ccco2)nc2sc(CN3CCC(F)(F)C3)cc12 [Example 94, 6-(3,3-Difluoro-pyrrolidin-1-ylmethyl)-2-furan-2-yl-thieno[2,3-d]pyrimidin-4-ylamine], the Ki [1] is reported as 8.23 nM and the Ki [2] is reported as 1240 nM.
Nc1nc(-c2ccc(C(F)F)o2)nc2sc(CN3CCC(F)(F)CC3)cc12 [Example 99, 2-(5-Difluoromethyl-furan-2-yl)-6-(4,4-difluoro-piperidin-1-ylmethyl)-thieno[2,3-d]pyrimidin-4-ylamine] gave a Ki [1] of 610 nM and a Ki [2] of 17800 nM.
Nc1nc(-c2ccc(C(F)F)o2)nc2sc(CN3CCC(F)CC3)cc12 [Example 100, 2-(5-Difluoromethyl-furan-2-yl)-6-(4-fluoro-piperidin-1-ylmethyl)-thieno[2,3-d]pyrimidin-4-ylamine] gave a Ki [1] of 42.4 nM and a Ki [2] of 1670 nM.
Nc1nc(-c2ccc(C(F)F)o2)nc2sc(CN3CCCC(F)(F)C3)cc12 [Example 101, 2-(5-Difluoromethyl-furan-2-yl)-6-(3,3-difluoro-piperidin-1-ylmethyl)-thieno[2,3-d]pyrimidin-4-ylamine] showed a Ki [1] of 42.5 nM and a Ki [2] of 2100 nM.

Reference: patent publication US20100093702A1, “METHYLENE AMINES OF THIENO[2,3-d]PYRIMIDINE AND THEIR USE AS ADENOSINE A2a RECEPTOR ANTAGONISTS” (priority 2008, published 2010)
